Where “and” joins values, the source holds several entries; their conditions need not be identical. Equal values may be shown once. Toxic doses and inconclusive results are not listed.
Test system: P388 leukemia ip, CD2F1 mice, survival T/C
Test: NCI In Vivo Anticancer Drug Screen. Data for tumor model P388 Leukemia (intraperitoneal) in CD2F1 (CDF1) mice
Conditions: endpoint: median survival time, higher = longer survival
In short: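 Mice carrying the transplanted tumor received test compound or vehicle. Survival was recorded in each group, and the value is the treated-group measurement divided by that of the vehicle-treated control group.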

[1] = dose: 60.0 mg/kg/injection, schedule: Q01DX005 (ip), vehicle: saline with Tween-80
[2] = dose: 120.0 mg/kg/injection, schedule: Q01DX005 (ip), vehicle: saline with Tween-80
[3] = dose: 240.0 mg/kg/injection, schedule: Q01DX005 (ip), vehicle: saline with Tween-80
[4] = dose: 100.0 mg/kg/injection, schedule: Q04DX002 (ip), vehicle: saline with Tween-80
[5] = dose: 200.0 mg/kg/injection, schedule: Q04DX002 (ip), vehicle: saline with Tween-80
[6] = dose: 50.0 mg/kg/injection, schedule: Q01DX005 (ip), vehicle: Klucel (hydroxypropylcellulose) (HPC)
[7] = dose: 100.0 mg/kg/injection, schedule: Q01DX005 (ip), vehicle: Klucel (hydroxypropylcellulose) (HPC)
[8] = dose: 200.0 mg/kg/injection, schedule: Q01DX005 (ip), vehicle: Klucel (hydroxypropylcellulose) (HPC)
[9] = dose: 50.0 mg/kg/injection, schedule: Q01DX009 (ip), vehicle: saline with Tween-80
[10] = dose: 15.0 mg/kg/injection, schedule: Q01DX005 (ip), vehicle: saline with Tween-80
[11] = dose: 30.0 mg/kg/injection, schedule: Q01DX005 (ip), vehicle: saline with Tween-80

SMILES: c1ccc2c(Nc3nccs3)c3ccccc3nc2c1
- T/C (dose: 12.5 mg/kg/injection, schedule: Q04DX002 (ip), vehicle: distilled water + Tween-80): 96 % of control
- T/C (dose: 25.0 mg/kg/injection, schedule: Q04DX002 (ip), vehicle: distilled water + Tween-80): 96 % of control
- T/C (dose: 50.0 mg/kg/injection, schedule: Q04DX002 (ip), vehicle: distilled water + Tween-80): 88 % of control
- T/C (dose: 100.0 mg/kg/injection, schedule: Q04DX002 (ip), vehicle: distilled water + Tween-80): 94 % of control
- T/C (dose: 200.0 mg/kg/injection, schedule: Q04DX002 (ip), vehicle: distilled water + Tween-80): 98 % of control
- T/C (dose: 400.0 mg/kg/injection, schedule: Q04DX002 (ip), vehicle: distilled water + Tween-80): 103 % of control

SMILES: CC1=CC(=O)C2OC2C1=O (stereo not drawn)
- T/C (dose: 5.0 mg/kg/injection, schedule: Q04DX002 (ip), vehicle: saline with Tween-80): 101 % of control

SMILES: O=C1ON=C(c2ccccc2)/C1=C\C=C\c1ccccc1
- T/C [1]: 95 % of control
- T/C [2]: 98 % of control
- T/C [3]: 103 % of control

SMILES: Cc1nc(CO)cc([N+](=O)[O-])c1C
- T/C (dose: 12.5 mg/kg/injection, schedule: Q01DX009 (ip), vehicle: distilled water + Tween-80): 101 % of control
- T/C (dose: 25.0 mg/kg/injection, schedule: Q01DX009 (ip), vehicle: distilled water + Tween-80): 101 % of control
- T/C (dose: 50.0 mg/kg/injection, schedule: Q01DX009 (ip), vehicle: distilled water + Tween-80): 100 % of control
- T/C (dose: 100.0 mg/kg/injection, schedule: Q01DX009 (ip), vehicle: distilled water + Tween-80): 101 % of control
- T/C (dose: 200.0 mg/kg/injection, schedule: Q01DX009 (ip), vehicle: distilled water + Tween-80): 104 % of control

SMILES: O=C(NCN1CCOCC1)c1ccccc1O
- T/C [4]: 98 % of control
- T/C [5]: 104 % of control

SMILES: Cc1ccc(C(=O)CSCC(=O)c2ccc(C)cc2)cc1
- T/C [6]: 87 % of control
- T/C [7]: 86 % of control
- T/C [8]: 94 % of control

SMILES: CN(C)N1C(=O)c2ccccc2NC1c1ccccc1 (stereo not drawn)
- T/C [6]: 87 % of control
- T/C [7]: 96 % of control
- T/C [8]: 94 % of control

SMILES: O=C1c2ccccc2C(=O)N1/N=C/c1ccc(O)cc1
- T/C [6]: 101 % of control
- T/C [7]: 99 % of control
- T/C [8]: 100 % of control

SMILES: CC(C)(C)C1=CC(=O)C(=O)C(C(C)(C)C)=C1
- T/C (dose: 25.0 mg/kg/injection, schedule: Q01DX009 (ip), vehicle: other): 101 % of control
- T/C (dose: 50.0 mg/kg/injection, schedule: Q01DX009 (ip), vehicle: other): 108 % of control
- T/C (dose: 100.0 mg/kg/injection, schedule: Q01DX009 (ip), vehicle: other): 108 % of control

SMILES: COc1ccc2c(c1)CC(C)[N+]([O-])=C2C(F)(F)F (stereo not drawn)
- T/C (dose: 50.0 mg/kg/injection, schedule: Q01DX005 (ip), vehicle: saline with Tween-80): 99 % of control
- T/C (dose: 100.0 mg/kg/injection, schedule: Q01DX005 (ip), vehicle: saline with Tween-80): 102 % of control
- T/C (dose: 200.0 mg/kg/injection, schedule: Q01DX005 (ip), vehicle: saline with Tween-80): 104 % of control

SMILES: NNC(=O)C(O)C(O)C(O)C(O)CO (stereo not drawn)
- T/C (dose: 50.0 mg/kg/injection, schedule: Q01DX005 (ip), vehicle: saline): 92 % of control
- T/C (dose: 100.0 mg/kg/injection, schedule: Q01DX005 (ip), vehicle: saline): 100 % of control
- T/C (dose: 200.0 mg/kg/injection, schedule: Q01DX005 (ip), vehicle: saline): 100 % of control

SMILES: Cc1cccc(N=Nc2c(C)nn(C(=S)S)c2C)c1C
- T/C [4]: 100 % of control
- T/C [5]: 99 % of control
- T/C (dose: 400.0 mg/kg/injection, schedule: Q04DX002 (ip), vehicle: saline with Tween-80): 98 % of control

SMILES: CSC(=S)N/N=C(\c1ccccc1)c1ccccn1
- T/C (dose: 6.25 mg/kg/injection, schedule: Q01DX009 (ip), vehicle: saline with Tween-80): 96 % of control
- T/C (dose: 12.5 mg/kg/injection, schedule: Q01DX009 (ip), vehicle: saline with Tween-80): 89 % of control and 97 % of control
- T/C [9]: 92 % of control

SMILES: OC1COc2ccccc2OCCOCCOc2ccccc2OC1
- T/C [10]: 100 % of control
- T/C [11]: 94 % of control
- T/C [1]: 95 % of control and 96 % of control

SMILES: C(/C=C/c1ccccc1)=C1SCCCS1
- T/C (dose: 100.0 mg/kg/injection, schedule: Q04DX003 (ip), vehicle: saline with Tween-80): 94 % of control
- T/C (dose: 200.0 mg/kg/injection, schedule: Q04DX003 (ip), vehicle: saline with Tween-80): 103 % of control
- T/C (dose: 400.0 mg/kg/injection, schedule: Q04DX003 (ip), vehicle: saline with Tween-80): 90 % of control

SMILES: O=[N+]([O-])c1ccc(OP(=O)(Oc2ccc([N+](=O)[O-])cc2)N(CCCl)CCCl)cc1
- T/C (dose: 18.8 mg/kg/injection, schedule: Q01DX001 (ip), vehicle: other): 108 % of control
- T/C (dose: 37.5 mg/kg/injection, schedule: Q01DX001 (ip), vehicle: other): 112 % of control
- T/C (dose: 75.0 mg/kg/injection, schedule: Q01DX001 (ip), vehicle: other): 113 % of control
- T/C (dose: 150.0 mg/kg/injection, schedule: Q01DX001 (ip), vehicle: other): 115 % of control
- T/C (dose: 300.0 mg/kg/injection, schedule: Q01DX001 (ip), vehicle: other): 99 % of control

SMILES: C[C@@H]1CCC[C@@H](NC(=O)N(CCCl)N=O)C1
- T/C (dose: 18.75 mg/kg/injection, schedule: Q01DX009 (ip), vehicle: Klucel (hydroxypropylcellulose) (HPC)): 176 % of control
- T/C (dose: 37.5 mg/kg/injection, schedule: Q01DX009 (ip), vehicle: Klucel (hydroxypropylcellulose) (HPC)): 193 % of control
- T/C (dose: 75.0 mg/kg/injection, schedule: Q01DX009 (ip), vehicle: Klucel (hydroxypropylcellulose) (HPC)): 249 % of control

SMILES: CCOC(=O)c1cnc2cc3c(cc2c1Nc1ccccc1C(=O)OC)OCO3
- T/C (dose: 50.0 mg/kg/injection, schedule: Q04DX002 (ip), vehicle: Klucel (hydroxypropylcellulose) (HPC)): 101 % of control
- T/C (dose: 100.0 mg/kg/injection, schedule: Q04DX002 (ip), vehicle: Klucel (hydroxypropylcellulose) (HPC)): 101 % of control
- T/C (dose: 200.0 mg/kg/injection, schedule: Q04DX002 (ip), vehicle: Klucel (hydroxypropylcellulose) (HPC)): 97 % of control

SMILES: C=c1cc2c(cc1=C)C(=O)c1ccccc1C2=O
- T/C [10]: 89 % of control
- T/C [11]: 90 % of control
- T/C [1]: 86 % of control and 91 % of control
- T/C [3]: 89 % of control

SMILES: CS/C(=C1/C(=O)N(c2ccccc2)N=C1C)N1CC1
- T/C (dose: 6.25 mg/kg/injection, schedule: Q04DX003 (ip), vehicle: Klucel (hydroxypropylcellulose) (HPC)): 99 % of control
- T/C (dose: 12.5 mg/kg/injection, schedule: Q04DX003 (ip), vehicle: Klucel (hydroxypropylcellulose) (HPC)): 100 % of control
- T/C (dose: 25.0 mg/kg/injection, schedule: Q04DX003 (ip), vehicle: Klucel (hydroxypropylcellulose) (HPC)): 102 % of control and 109 % of control
- T/C (dose: 50.0 mg/kg/injection, schedule: Q04DX003 (ip), vehicle: Klucel (hydroxypropylcellulose) (HPC)): 90 % of control

SMILES: CC(NC(=O)CCl)C(=O)O (stereo not drawn)
- T/C (dose: 25.0 mg/kg/injection, schedule: Q01DX009 (ip), vehicle: saline with Tween-80): 105 % of control and 109 % of control
- T/C [9]: 101 % of control and 103 % of control
- T/C (dose: 50.0 mg/kg/injection, schedule: Q01DX009 (ip), vehicle: saline): 101 % of control
- T/C (dose: 100.0 mg/kg/injection, schedule: Q01DX009 (ip), vehicle: saline with Tween-80): 105 % of control and 95 % of control
- T/C (dose: 100.0 mg/kg/injection, schedule: Q01DX009 (ip), vehicle: saline): 105 % of control
- T/C (dose: 200.0 mg/kg/injection, schedule: Q01DX009 (ip), vehicle: saline with Tween-80): 103 % of control
- T/C (dose: 200.0 mg/kg/injection, schedule: Q01DX009 (ip), vehicle: saline): 101 % of control

SMILES: N/C(CC(=O)Nc1ccc(F)cc1)=N\O
- T/C [1]: 108 % of control
- T/C [2]: 102 % of control
- T/C [3]: 100 % of control

SMILES: C/C(N)=C/C(=O)Nc1ccccc1
- T/C (dose: 25.0 mg/kg/injection, schedule: Q01DX009 (ip), vehicle: Klucel (hydroxypropylcellulose) (HPC)): 109 % of control
- T/C (dose: 50.0 mg/kg/injection, schedule: Q01DX009 (ip), vehicle: Klucel (hydroxypropylcellulose) (HPC)): 109 % of control
- T/C (dose: 100.0 mg/kg/injection, schedule: Q01DX009 (ip), vehicle: Klucel (hydroxypropylcellulose) (HPC)): 97 % of control
- T/C (dose: 200.0 mg/kg/injection, schedule: Q01DX009 (ip), vehicle: Klucel (hydroxypropylcellulose) (HPC)): 108 % of control

SMILES: N#Cc1ccc(-c2nc3ncnc(N)c3[nH]2)cc1
- T/C (dose: 60.0 mg/kg/injection, schedule: Q01DX005 (ip), vehicle: Klucel (hydroxypropylcellulose) (HPC)): 92 % of control
- T/C (dose: 120.0 mg/kg/injection, schedule: Q01DX005 (ip), vehicle: Klucel (hydroxypropylcellulose) (HPC)): 90 % of control
- T/C (dose: 240.0 mg/kg/injection, schedule: Q01DX005 (ip), vehicle: Klucel (hydroxypropylcellulose) (HPC)): 91 % of control
